Reference: patent US5606037A, “Processes antineoplastic heteronaphthoquinones” (BioChem Pharma Inc., priority 1995, dated 1997)

Columns and labels:
Assay type in all cases: cell-based, Human
[1] = test system: SKOV3 (Ovarian adenocarcinoma); experiment: In vitro cytotoxicity, microculture tetrazolium (MTT) assay, SKOV3; conditions: SKOV3 ovarian adenocarcinoma, 48 h with compound, further 48 h, MTT, Table 1
Protocol: (§1) The microculture tetrazolium assay was used to test in vitro cytotoxicity. This assay is described in Plumb, J. A. et al., 1989 Cancer Research 49, 4435-4440, which is herein incorporated by reference. The cytotoxicity of compounds towards tumor cells is measured in vitro using the assay. This assay method is based upon the ability of live, but not dead cells to reduce the yellow water soluble dye 3-(4,5-dimethylthiazol-2-yl)-2,5-diphenyltetrazolium bromide (MTT) to its water insoluble purple formazan product.
(§2) Human Tumor Cell lines, used were:
SKOV3 (Ovarian adenocarcinoma)--provided by Dr. V. Ling, Ontario Cancer Institute.
(§3) The cells were maintained in exponential growth in culture in minimal essential media (MEM) supplemented with non-essential amino acids, and containing 15% (v/v) fetal. bovine serum, 5 mM L-glutamine, 1 mM sodium pyruvate, and 0.1 U/ml insulin. All cell lines were grown at 37° C. in an atmosphere of 5% CO2 in air.
(§4) MTT: 2 mg/ml in phosphate buffered saline (stable at 4° C. in dark for 1 week).
(§5) Sorensen's buffer: 0.1M glycine/NaOH, pH 10.5, containing 0.1M NaCl.
(§6) Test compounds: 20 mM in DMSO and diluted to a final concentration of 200 μM in culture medium before use.
(§7) For each assay, doxorubicin is included as an inter-assay standard. This allows us to monitor the behaviour of the assay in general, and in particular, to check that the SKVLB line has maintained its resistant phenotype.
(§8) The assays are carried out in 96-well (8 well×12 well) microtiter plates. Serial dilutions of the compound are tested along the length of the plate. A 1:3 serial dilution of compound in culture medium covers a concentration range from 100 μM to 1.7 nM. Each concentration of compound is tested in quadruplet, allowing two compounds to be tested per plate. Wells containing no cells (blank) and cells with no test compound (control) are included on each plate.
(§9) Cells are plated out in 100 μl of culture medium in the microtiter plates at a density of around 1,500-4,000 cells per well. The plates are incubated overnight to allow the cells to become adherent after which the test compound is added (100 μl of appropriate dilution per well). The cells are incubated with test compound at 37° C. for 48 h after which the compound is replaced with fresh medium. After a further 48 h incubation at 37° C., 50 μl of MTT solution (2 mg/ml) is added to each well. The plates are incubated in the dark for 4 h at 37° C. after which the medium is removed. The MTT formazan product is extracted from the cells by the addition of 200 μl DMSO followed by 50 μl of Sorensen's buffer. The plates are shaken briefly and the absorbance at 570 nm is read using a Molecular Devices UV max plate reader. Curves are fit to the MTT assay data using a four parameter logistic equation, and the data are normalized to fit a 0% to 100% survival scale.

Lox (Melanoma) = experiment: In vitro cytotoxicity, microculture tetrazolium (MTT) assay, LOX; conditions: Homo sapiens, 48 h with compound, further 48 h, Table 1
Protocol: as §1, §2
Lox (Melanoma)--Southern Research Institute.
as §3, §4, §5, §6, §7, §8, §9

[2] = test system: SKVLB (Ovarian; multidrug resistant); experiment: In vitro cytotoxicity, microculture tetrazolium (MTT) assay, SKVLB; conditions: SKVLB multidrug resistant ovarian, 48 h with compound, further 48 h, MTT, Table 1
Protocol: as §1, §2
SKVLB (Ovarian; multidrug resistant)--Dr. V. Ling, Ontario Cancer Institute.
as §3, §4, §5, §6, §7, §8, §9

[3] = test system: HT 29 (Colon adenocarcinoma); experiment: In vitro cytotoxicity, microculture tetrazolium (MTT) assay, HT29; conditions: further 48 h, Table 1
Protocol: as §1, §2
HT 29 (Colon adenocarcinoma) ATCC catalog #HTB-38.
as §3, §4, §5, §6, §7, §8, §9

[4] = test system: T47D (Ductal carcinoma of breast); experiment: In vitro cytotoxicity, microculture tetrazolium (MTT) assay, T47D; conditions: 48 h with compound, further 48 h, Table 1
Protocol: as §1, §2
T47D (Ductal carcinoma of breast)--ATCC catalog #HTB-133.
as §3, §4, §5, §6, §7, §8, §9

[5] = Homo sapiens, HT-29, 48 h with compound

Structure (SMILES) | IC50 ([1]; Homo sapiens, SK-OV-3) | IC50 (Lox (Melanoma)) | IC50 ([2]; Homo sapiens) | IC50 [3, 5] | IC50 ([4]; Homo sapiens) | IC50 [4] | IC50 [1] | IC50 ([3]; 48 h with compound) | IC50 [2]
C[C@@H]1O[C@@H](OC2OC(C#N)CC3=C2C(=O)c2ccccc2C3=O)C[C@H](NC(=O)C(F)(F)F)[C@@H]1O (mixture of isomers) [BCH1688, (1'-S, 1-R, 3-S) and (1'-S, 1-S, 3-R)-3-cyano-1-[2',3',6'-trideoxy-3'-trifluoroacetamido-4'-hydroxy-L-lyxohexopyranose)-5,10-dioxo-3,4,5,10-tetrahydronaphtho-[2,3C]pyran-3-yl] | 0.634 µM | 0.402 µM | 2.77 µM | 1.35 µM | – | – | – | – | –
CC(=O)O[C@@H]1[C@H](C)O[C@@H](OC2OC(C(C)=O)CC3=C2C(=O)c2ccccc2C3=O)C[C@@H]1OC(C)=O (mixture of isomers) [BCH2118, (1'S,1S,3R) and (1'S,1R,3S)-methyl-(1-[dideoxy-2',6'-diacetoxy-3',4'-L-lyxohexopyranose]-5,10-dioxo-3,4,5,10-tetrahydronaphtho-[2,3-c]-pyran-3-yl) ketone] | 0.12 µM | – | – | 0.203 µM | 0.244 µM | – | – | – | –
CC[C@H]1CC2=C(C(=O)c3ccccc3C2=O)[C@H](NC(C)=O)O1 (relative stereo) [BCH2027, Trans-5,10-dioxo-1-acetamido-3-ethyl-3,4,5,10-tetrahydro-1H-naphtho-[2,3-c]-pyran] | 7.01 µM | – | 29 µM | 15.4 µM | – | – | – | – | –
CO[C@@H]1O[C@H](C(=O)O)CC2=C1C(=O)c1ccccc1C2=O (relative stereo) [BCH2119, (1,3-cis)-1-methoxy-3-carboxyl-5,10-dioxo-3,4,5,10-tetrahydro-1H-naphtho-[2,3-c]-pyran] | > 100 µM | – | > 100 µM | > 100 µM | > 100 µM | – | – | – | –
C=C(C)[C@H]1CC2=C(C(=O)c3ccccc3C2=O)[C@H](OC)O1 (relative stereo) [BCH2148, (trans)-5,10-dioxo-3-isopropenyl-1-methoxy-3,4,5,10-tetrahydro-1H-naphtho-[2,3-c]-pyran] | 12.6 µM | – | 9.93 µM | 7.5 µM | 2.36 µM | – | – | – | –
COC(=O)C1(C(=O)OC)CC2=C(CO1)C(=O)c1ccccc1C2=O [BCH1665, 3,3-bis-(methoxycarbonyl)-5,10-dioxo-3,4,5,10-tetrahydro-1H-naphtho-[2,3-c]-pyran] | 25.4 µM | 11.5 µM | 28.9 µM | 60.4 µM | – | – | – | – | –
CC(=O)O[C@H]1[C@@H](I)[C@H](O[C@H]2O[C@H](C(C)=O)CC3=C2C(=O)c2ccccc2C3=O)O[C@@H](C)[C@H]1OC(C)=O [BCH1666, (1'S,1R,3S)-methyl-(1-[2',6'-dideoxy-3'-4'-diacetoxy-2'-iodo-L-lyxohexopyranose]-5,10-dioxo-3,4,5,10-tetrahydronaphtho[2,3-c]-pyran-3-yl) ketone] | 0.272 µM | 0.125 µM | 0.205 µM | 0.0783 µM | – | – | – | – | –
CC(=O)O[C@H]1[C@@H](I)[C@H](O[C@@H]2O[C@@H](C(C)=O)CC3=C2C(=O)c2ccccc2C3=O)O[C@@H](C)[C@H]1OC(C)=O [BCH1667, (1'S,1S,3R)-methyl-(1-[2',6'-dideoxy-3',4'-diacetoxy-2'-iodo-L-lyxohexopyranose]-5,10-dioxo-3,4,5,10-tetrahydronaphtho[2,3-c]-pyran-3-yl) ketone] | 0.0122 µM | 0.0133 µM | 0.0893 µM | 0.0016 µM | – | – | – | – | –
COC[C@@H]1CC2=C(C(=O)c3ccccc3C2=O)[C@@H](O[C@H]2C[C@H](NC(=O)C(F)(F)F)[C@H](O)[C@H](C)O2)O1 [BCH1691, (1'S, 1R, 3S)-5,10-dioxo-3-methoxymethyl-1-(2',3',6'-trideoxy-3'-trifluoroacetamido-L-lyxohexopyranose)-3,4,5,10-tetrahydro-1H-naphtho-[2,3-c]-pyran] | 8.83 µM | 4.49 µM | 18.5 µM | 7.16 µM | – | – | – | – | –
CC(=O)[C@]1(C)CC2=C(C(=O)c3ccccc3C2=O)[C@H](O[C@H]2C[C@H](NC(=O)C(F)(F)F)[C@H](O)[C@H](C)O2)O1 [BCH2090, (1'S,1S,3S)-1-(3'-trifluoroacetamido-2',3',6'-trideoxy-lyxo-L-hexopyranose)-3-acetyl-3-methyl-3,4,5,10-tetrahydro-5,10-dioxo-1H-naphtho-[2,3-c]pyran] | 11 µM | – | 36 µM | 10.4 µM | – | – | – | – | –
CC(C)OC(=O)[C@H]1CC2=C(C(=O)c3ccccc3C2=O)[C@H](O[C@H]2C[C@H](NC(=O)C(F)(F)F)[C@H](O)[C@H](C)O2)O1 [BCH2121] | 0.21 µM | 0.34 µM | 1.3 µM | 0.34 µM | – | – | – | – | –
CC(C)OC(=O)[C@@H]1CC2=C(C(=O)c3ccccc3C2=O)[C@@H](O[C@H]2C[C@H](NC(=O)C(F)(F)F)[C@H](O)[C@H](C)O2)O1 [BCH2122, (1'S, 1R, 3S)-5,10-dioxo-3-isopropoxycarbonyl-1-(2',3',6'-trideoxy-3'-trifluoroacetamido-L-lyxohexopyranose)-3,4,5,10-tetrahydro-1H-naphtho-[2,3-c]-pyran] | 0.37 µM | 0.73 µM | 2 µM | 0.64 µM | – | – | – | – | –
CC(=O)[C@H]1CC2=C(C(=O)c3ccccc3C2=O)[C@H](O[C@H]2C[C@H](NC(=O)C(F)(F)F)[C@H](O)[C@H](C)O2)S1 [BCH2127, (1'S, 1R, 3R)-1-(3'-trifluoroacetamido-2',3',6'-trideoxy-L-lyxohexopyranose)-3-acetyl-5,10-dioxo-3,4,5,10-tetrahydro-1H-naphtho-[2,3-c]-thiopyran] | 0.35 µM | 2 µM | 4.1 µM | 2.7 µM | – | – | – | – | –
COC(=O)[C@@H]1CC2=C(C(=O)c3ccccc3C2=O)[C@@H](O[C@H]2C[C@H](NC(=O)C(F)(F)F)[C@H](O)[C@H](C)O2)O1 [BCH2128, (1'S, 1R, 3S)-5,10-dioxo-3-methoxycarbonyl-1-(2',3',6'-trideoxy-3'-trifluoroacetamido-L-lyxohexopyranose)-3,4,5,10-tetrahydro-1H-naphtho-[2,3-c]-pyrano] | 1.7 µM | 1.4 µM | 5.8 µM | 1.6 µM | – | – | – | – | –
CC(=O)C1CC2=C(C(=O)c3ccccc3C2=O)C(OC2CC(NC(=O)C(F)(F)F)C(O)C(C)O2)O1 [BCH2145, (1S, 3R)-1-(2',3',6'-trideoxy-3'-trifluoroacetamido-4'-hydroxy-1,5-dihydro-L-lyxohexopyranose-2-yl)-5,10-dioxo-3,4,5,10-tetrahydro-1H-naphtho-[2,3-c] pyran] | – | – | – | – | – | 1.78 µM | – | – | –
COC1OC(C(=O)NCCCN2CCCC2=O)=CC2=C1C(=O)c1ccccc1C2=O (stereo not shown) [BCH2166, 1-methoxy-3-(3-N-pyrrolidinomylpropylaminocarbonyl)-5,10-dioxo-5,10-dihydro-1H-naphtho-[2,3-c]-pyran] | – | – | – | – | – | 0.237 µM | 0.14 to 0.181 µM | 0.443 to 1.2 µM | –
COC1OC(C(=O)NCCN2CCOCC2)=CC2=C1C(=O)c1ccccc1C2=O (stereo not shown) [BCH2170, 1-methoxy-3-[2-(N-morpholino)ethylaminocarbonyl]-5,10-dioxo-5,10-dihydro-1H-naphtho-[2,3-c]-pyran] | 0.259 µM | – | 0.394 µM | 0.244 µM | – | – | – | – | –
COC1OC(C(=O)NCCN2CCOCC2)=CC2=C1C(=O)c1ccccc1C2=O (stereo not shown) [BCH2171, 1-methoxy-3-[2-(N-morpholine)ethylaminocarbonyl]-5,10-dioxo-5,10-dihydro-1H-naphtho-[2,3-c]-pyran] | – | – | – | – | – | 0.398 µM | – | – | 0.422 to 0.44 µM
COC(=O)C1=CC2=C(CO1)C(=O)c1ccccc1C2=O [BCH2830, 3-methoxy carbonyl-5,10-dioxo-5,10-dihydro-1H-naphtho-[2,3-c]-pyran] | 7.12 µM | – | – | 12.5 µM | – | – | – | – | –
